Data as given in patent EP3741762A1, “OXALAMIDO-SUBSTITUTED TRICYCLIC INHIBITORS OF HEPATITIS B VIRUS” (priority 2019, dated 2020).

Tested on: HBV
Experiment: Anti-HBV activity in vitro: quantification of extracellular HBV DNA by direct qPCR in HepAD38 cells
Type: cell-based
Settings: Hepatitis B virus, tetracycline-free medium, 96 hours at 37°C, reported as EC50 threshold value, read-out: HBV inh EC50
Source text: HepAD38 cell line (Ladner et al., Antimicrob Agents Chemother, 1997, 41, 1715-20) was used for HBV inhibition assays. HepAD38 is a subclone, derived from Hepatoblastoma cell line HepG2 (ATCC® Number: HB-8065™), that expresses HBV genome under the transcriptional control of a tetracycline-responsive promoter in a TET-OFF system: addition of tetracycline (TET) or doxycycline suppresses HBV replication, while its removal switches on the process allowing HBV viral particles release in the cell supernatant. HepAD38 cell line is maintained in DMEM/F12, supplemented with 10% of fetal bovine serum, 1% of glutamine, 1% of penicillin/streptomycin, 0.4 mg/ml G418 and 0,3 ug/ml tetracycline. For the HBV inhibition assay, doxycycline-free medium is used in order to allow virion production.
HBV inhibition activity in vitro was performed in 96 multiwell plates. During the initial (primary) screening, compounds were first tested in triplicates at concentrations of 0.02 µM, 0.1 µM, 0.5µM and 1µM. For selected compounds, an 8-point dose-response curve was obtained using 1:2 serial dilutions (starting from 0.01µM, 0.1µM, 0.4µM or 5 µM, depending on the degree of inhibition observed during the primary screening). From the dose-response curves, half maximal effective concentration (EC50) could be calculated (see also below).
In more detail, compounds - typically dissolved in DMSO stock solutions - were diluted to 2x the final desired concentration in 100 µl of the above medium (without doxycycline) and plated in three replicates in the 96-well plates.
Simultaneously, HepAD38 cells - extensively pre-washed in tetracycline-free medium in order to induce HBV production - were suspended at 2^∗10^4 cells in 100 µl of tetracycline-free medium and added to each well of the plate, to yield a final assay volume of 200 µl DMSO - used for stock solutions and compounds dilutions - which was always present in the assays at a final concentration of 0.5%.
Plates were then incubated 96 hours at 37°C and then subjected to cell viability assays and extracellular HBV quantification, in order to evaluate both the cytotoxic potential and the antiviral activity of compounds. Cytotoxicity was assessed by a commercial fluorescence assay that measures the metabolic activity of cells, directly related to cell viability (Cell Titer Blue, Promega). Anti-HBV activity was evaluated by quantification of extracellular HBV DNA with direct qPCR. In particular, supernatant was collected and centrifuged for cell debris clarification, viral DNA was extracted from virions by addition of lysis buffer (1 mM 1,4-dithiothreitol, 0.2% sodium dodecyl sulphate) and incubated at 95°C for 10 min. Samples were then diluted 1:40 and real time PCR amplification was performed with SYBR green assay (Power SYBR™ Green PCR Master Mix-Thermo Fisher Scientific) and specific HBV primer (HBV-DF:5'-[…]-3' (SEQ ID No. 1), HBV-DR:5'-[…]-3' (SEQ ID No.2)).
Antiviral activity data for each compound are reported as EC50 threshold value (see Table 1 legend). Excel and Graphpad Prism programs are typically used for data elaboration and EC50 calculation.

Compound	EC50
CN(C)C(=O)C(=O)N1C[C@@H]2COc3c(cn(C)c3C(=O)Nc3cc(F)c(F)c(F)c3)S(=O)(=O)N[C@@H]2C1 (relative stereo) [Example E1, cis-2-(2-(dimethylamino)-2-oxoacetyl)-7-methyl-N-(3,4,5-trifluorophenyl)-2,3,3a,4,10,10a-hexahydro-1H,7H-dipyrrolo[3,4-b:3',4'-f][1,4,5]oxathiazocine-8-carboxamide 5,5-dioxide]	< 500 nM
Cc1cc(NC(=O)c2c3c(cn2C)S(=O)(=O)N[C@@H]2CN(C(=O)C(=O)NC4(C)COC4)C[C@@H]2CO3)ccc1F (relative stereo) [Example E2, cis-N-(4-fluoro-3-methylphenyl)-7-methyl-2-(2-((3-methyloxetan-3-yl)amino)-2-oxoacetyl)-2,3,3a,4,10,10a-hexahydro-1H,7H-dipyrrolo[3,4-b:3',4'-f][1,4,5]oxathiazocine-8-carboxamide 5,5-dioxide]	< 500 nM
CNC(=O)C(=O)N1C[C@@H]2COc3c(cn(C)c3C(=O)Nc3ccc(F)c(C)c3)S(=O)(=O)N[C@@H]2C1 (relative stereo) [Example E10, cis N-(4-fluoro-3-methylphenyl)-7-methyl-2-(2-(methylamino)-2-oxoacetyl)-2,3,3a,4,10,10a-hexahydro-1H,7H-dipyrrolo[3,4-b:3',4'-f][1,4,5]oxathiazocine-8-carboxamide 5,5-dioxide]	< 500 nM
Cc1cc(NC(=O)c2c3c(cn2C)S(=O)(=O)N[C@@H]2CN(C(=O)C(N)=O)C[C@@H]2CO3)ccc1F (relative stereo) [Example E11, cis-2-(2-amino-2-oxoacetyl)-N-(4-fluoro-3-methylphenyl)-7-methyl-2,3,3a,4,10,10a-hexahydro-1H,7H-dipyrrolo[3,4-b:3',4'-f][1,4,5]oxathiazocine-8-carboxamide 5,5-dioxide]	< 500 nM
CNC(=O)C(=O)N1C[C@@H]2COc3c(cn(C)c3C(=O)Nc3cc(F)c(F)c(F)c3)S(=O)(=O)N[C@@H]2C1 (relative stereo) [Example E12, cis-7-methyl-2-(2-(methylamino)-2-oxoacetyl)-N-(3,4,5-trifluorophenyl)-2,3,3a,4,10,10a-hexahydro-1H,7H-dipyrrolo[3,4-b:3',4'-f][1,4,5]oxathiazocine-8-carboxamide 5,5-dioxide]	< 500 nM
Cn1cc2c(c1C(=O)Nc1cc(F)c(F)c(F)c1)OC[C@H]1CN(C(=O)C(N)=O)C[C@H]1NS2(=O)=O (relative stereo) [Example E13, cis-2-(2-amino-2-oxoacetyl)-7-methyl-N-(3,4,5-trifluorophenyl)-2,3,3a,4,10,10a-hexahydro-1H,7H-dipyrrolo[3,4-b:3',4'-f][1,4,5]oxathiazocine-8-carboxamide 5,5-dioxide]	< 500 nM
Cc1cc(NC(=O)c2c3c(cn2C)S(=O)(=O)N[C@@H]2CN(C(=O)C(=O)NC4CC4)C[C@]2(C)CO3)ccc1F (relative stereo) [Example E25, cis-2-(2-(cyclopropylamino)-2-oxoacetyl)-N-(4-fluoro-3-methylphenyl)-7,10a-dimethyl-2,3,3a,4,10,10a-hexahydro-1H,7H-dipyrrolo[3,4-b:3',4'-f][1,4,5]oxathiazocine-8-carboxamide 5,5-dioxide]	< 500 nM
Cc1cc(NC(=O)c2c3c(cn2C)S(=O)(=O)N[C@]2(C)CN(C(=O)C(=O)NC4CC4)C[C@@H]2CO3)ccc1F (relative stereo) [Example E28, cis-2-(2-(cyclopropylamino)-2-oxoacetyl)-N-(4-fluoro-3-methylphenyl)-3a,7-dimethyl-2,3,3a,4,10,10a-hexahydro-1H,7H-dipyrrolo[3,4-b:3',4'-f][1,4,5]oxathiazocine-8-carboxamide 5,5-dioxide]	< 500 nM
Cc1cc(NC(=O)c2c3c(cn2C)S(=O)(=O)N[C@@H]2CN(C(=O)C(=O)NC4CC4)C[C@H]2CO3)ccc1F (relative stereo) [Example E31, trans-2-(2-(cyclopropylamino)-2-oxoacetyl)-N-(4-fluoro-3-methylphenyl)-7-methyl-2,3,3a,4,10,10a-hexahydro-1H,7H-dipyrrolo[3,4-b:3',4'-f][1,4,5]oxathiazocine-8-carboxamide 5,5-dioxide]	< 500 nM
